Reference: publication PMC10166890, “Screening for DAX1/EWS‐FLI1 functional inhibitors identified dihydroorotate dehydrogenase as a therapeutic target for Ewing's sarcoma” (Cancer Medicine, 2023)

Assays:
DAX1 = DAX1 reporter assay (KJMGER8/pAGal9p4‐hDAX1 cells, luciferase); type: cell-based, human
Description: pAGal9‐hDAX1 and pAPPRE×10‐Luc + were transfected into KJMGER8 cells by electroporation using a Gene Pulser (Bio‐Rad Laboratories, Hercules, CA, USA), and clones stably expressing the DAX1 and luciferase reporter genes under the control of PPRE were selected. The obtained clone was termed KJMGER8/pAGal9p4‐hDAX1. KJMGER8/pAGal9p4‐hDAX1 cells (1.8 × 10^4 cells/well) were seeded in 384‐well white plates (Greiner Japan, Tokyo, Japan) and cultured in RPMI1640‐IPTSG medium containing 10 nM 17β‐estradiol (E2; Sigma‐Aldrich), dissolved in ethanol, with test compounds at concentration ranges of 0.01 to 10,000 nM or vehicle (dimethyl sulfoxide [DMSO]). The final DMSO concentration was ≤0.3%, and the ethanol concentration was 0.1%. The next day, Blight‐Glo Luciferase Assay Reagent (Promega, Madison, WI, USA) was added to the medium. The luciferase activity was measured using a TopCount NXT system (PerkinElmer, Waltham, MA, USA). IC50 values were calculated using XLfit version 4 (ID Business Solutions, Surrey, UK).
A DAX1 reporter assay system was constructed with the estrogen‐inducible Namalwa cell (KJMGER8 cell) by co‐transfection with pAGal9‐hDAX1 and pAPPRE×10‐Luc+.[18] In the obtained cell line KJMGER8/pAGal9p4‐hDAX1, DAX1 expression is induced by E2 treatment, and the expressed DAX1 increases luciferase expression. Reporter activity was increased by E2 treatment as expected (Figure S2). […] Using this DAX1 reporter assay system, small‐molecule compounds in an in‐house library were screened to obtain DAX1 inhibitors, and K‐234 was identified (Figure 1).
pAGal9-hDAX1 and pAPPRE×10-Luc+ were transfected into KJMGER8 cells by electroporation using a Gene Pulser (Bio-Rad Laboratories, Hercules, CA, USA), and clones stably expressing the DAX1 and luciferase reporter genes under the control of PPRE were selected. The obtained clone was termed KJMGER8/pAGal9p4-hDAX1. KJMGER8/pAGal9p4-hDAX1 cells (1.8×10^4 cells/well) were seeded in 384-well white plates (Greiner Japan, Tokyo, Japan) and cultured in RPMI1640-IPTSG medium containing 10 nM 17β-estradiol (E2; Sigma-Aldrich), dissolved in ethanol, with test compounds at concentration ranges of 0.01 to 10000 nM or vehicle (dimethyl sulfoxide [DMSO]). The final DMSO concentration was ≤0.3%, and the ethanol concentration was 0.1%. The next day, Blight-Glo Luciferase Assay Reagent (Promega, Madison, WI, USA) was added to the medium. The luciferase activity was measured using a TopCount NXT system (PerkinElmer, Waltham, MA, USA). IC50 values were calculated using XLfit version 4 (ID Business Solutions, Surrey, UK)

DHODH = target: T1, DHODH (Mus musculus, UniProt O35435); test: DHODH inhibition with mouse liver mitochondria; type: biochemical
T1 construct: IC50 value for the mouse liver mitochondrial fraction; from tissue; host or cells: mouse liver mitochondria

[1] = test system: EWS‐FLI1 target gene expression; test: EWS‐FLI1 target gene expression in A‐673 tumors after 14‐day treatment; type: in vivo, mouse; conditions: after 14‐day oral treatment
Description: Total RNA was extracted using the RNeasy Plus Mini kit (Qiagen, Valencia, CA, USA) according to the manufacturer's protocol. cDNA was synthesized from 1 μg of total RNA using a SuperScript VILO cDNA synthesis kit (Thermo Fisher Scientific). Real‐time PCR was carried out using TaqMan Fast Universal PCR Master Mix (Thermo Fisher Scientific).
All animal studies were performed in accordance with Standards for Proper Conduct sof Animal Experiments at Kyowa Kirin Co., Ltd., under the approval of the company's Institutional Animal Care and Use Committee. Male C.B17/Icr‐scid/scidJcl (SCID) mice (5 weeks old) were purchased from CREA Japan (Tokyo, Japan). K‐733 was suspended in 0.5% (w/v) methylcellulose 400 (MC400; FUJIFILM Wako Pure Chemical) and orally administered to mice once daily. Ewing's cells were suspended in Dulbecco's phosphate‐buffered saline (DPBS; Thermo Fisher Scientific, Waltham, MA, USA) and injected subcutaneously into the ventral side of mice at 5 × 10^6 cells/0.1 mL/mouse for A‐673 and TC‐71 and 1 × 10^7 cells/0.1 mL/mouse for CADO‐ES1 and SK‐ES‐1. In experiments using TC‐71 cells, 0.3 mg of anti‐asialo GM1 antibody (FUJIFILM Wako Pure Chemical) was injected intraperitoneally 1 day before TC‐71 injection. The tumor size and body weight were measured every 3 or 4 days. The tumor volume was calculated using the following equation: Tumor volumemm^3=DL×DS×DS×1/2, where DL and DS represent the long diameter and short diameter, respectively. The pharmacokinetic analysis of K‐733 is described in Materials and Methods S2.
FIGURE 8 K‐733 exerts an anti‐tumor effect in mice bearing Ewing's sarcoma. (A) Plasma concentration‐time profiles of K‐733 in mice after a single oral administration of K‐733. Each plot represents the mean of duplicate measurements. (B) Antitumor effect of K‐733 on A‐673 cells. Indicated doses of K‐733 were orally administered once daily for 14 days. Each plot represents the mean of n = 5 and SE. C, Influence of K‐733 on EWS‐FLI1‐related genes. Tumors were sampled after 14 days oral administration of K‐733. Each plot represents the mean of n = 5 and SE. […]

T1 sequence (O35435 whole entry): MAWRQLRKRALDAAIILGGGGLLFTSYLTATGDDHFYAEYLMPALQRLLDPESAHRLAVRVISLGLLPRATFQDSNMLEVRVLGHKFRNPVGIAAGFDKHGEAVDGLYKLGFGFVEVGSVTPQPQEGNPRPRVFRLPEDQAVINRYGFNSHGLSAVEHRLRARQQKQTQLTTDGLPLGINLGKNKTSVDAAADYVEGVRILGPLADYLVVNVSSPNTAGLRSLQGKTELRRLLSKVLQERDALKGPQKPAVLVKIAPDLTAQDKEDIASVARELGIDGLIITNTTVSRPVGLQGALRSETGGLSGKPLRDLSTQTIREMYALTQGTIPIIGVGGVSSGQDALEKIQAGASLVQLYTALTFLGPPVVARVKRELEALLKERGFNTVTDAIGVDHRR

## Cc1nc(-c2ccc(C3c4[nH]c5ccc(Cl)cc5c4CCN3C(=O)Oc3ccccc3)cc2)no1 (stereo not drawn) [K-733, phenyl 6‐chloro‐1‐(4‐(5‐methyl‐1,2,4‐oxadiazol‐3‐yl)phenyl)‐1,3,4,9‐tetrahydro‐2H‐pyrido[3,4‐b]indole‐2‐carboxylate]
DAX1; Homo sapiens, KJMGER8/pAGal9p4‐hDAX1 cells, 10 nM E2, overnight, read-out: IC50 for inhibition of DAX1 reporter activity
  IC50: 9.01 nM
DAX1; uridine 100 μM, overnight
  Effect of uridine addition on inhibition of DAX1 reporter activity: completely abrogated
DHODH
  IC50: 120 nM
[1]
  DAX1 mRNA levels in tumors: no marked effect
  mRNA levels of IGFBP3 and DKK1 in tumors: increased
  mRNA levels of NKX2‐2 in tumors: decreased
